Measurements taken from patent US12565494B2, “Inhibitors of human respiratory syncytial virus and metapneumovirus” (priority 2022, dated 2026).
Read-outs that look alike come from different tables or passages of the source.

Experiments:
RSV-A2-GFP virus = assay: microbe, parasite or virus in culture; assay type: cell-based, Human Respiratory Syncytial Virus; conditions: Calu-1 cells, RSV-A2-GFP MOI=1.2, 96 hrs, GFP-expressing cells counted
Procedure, shortened: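 Assay-ready frozen Calu-1 cells (20,000 cells/mL) were infected with RSV-A2-GFP at MOI 1.2 in DMEM with 2% FBS and exposed to a 10-point 3-fold compound dilution for 96 h at 37 °C. GFP-positive cells were counted by imaging, with same-well CellTiter-Glo for cytotoxicity. IC50 and CC50 came from 4-parameter logistic fits.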

hMPV-GFP virus = assay: microbe, parasite or virus in culture; assay type: cell-based, Human Metapneumovirus; conditions: VERO cells, hMPV-GFP MOI=1.25, 48 hrs, GFP-expressing cells counted
Procedure, shortened: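 VERO cells infected with GFP-expressing hMPV at MOI 1.25 and exposed to compound in 10-point 3-fold dilutions (typical final 40,300–2 nM) for 48 h at 37 °C. GFP-positive cells counted by imaging; same-well CellTiter-Glo for cytotoxicity. IC50 and CC50 from 4-parameter logistic fits.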

[1] = Table I Summary of Activities for RSV, read-out: RSV EC50
[2] = Table II Summary of Activities for hMPV, read-out: RSV EC50
[3] = human respiratory syncytial virus, Calu-1, 96 h, read-out: RSV EC50, Table I Summary of Activities for RSV
[4] = Vero, 48 h, read-out: RSV EC50, Table II Summary of Activities for hMPV

SMILES	EC50 (RSV-A2-GFP virus; [1]) [nM]	EC50 (hMPV-GFP virus; [2]) [nM]	EC50 (RSV-A2-GFP virus; [3]) [nM]	EC50 (hMPV-GFP virus; [4]) [nM]
Cn1nc(-c2ncco2)cc1C(=O)N1C[C@@H]2[C@H](C1)[C@H]2Oc1cc(C(C)(C)N)cc(-c2ccc3c(c2)CC3(F)F)n1 [Example 35, ((1R,5S,6s)-6-((4-(2-aminopropan-2-yl)-6-(7,7-difluorobicyclo[4.2.0]octa-1(6),2,4-trien-3-yl)pyridin-2-yl)oxy)-3-azabicyclo[3.1.0]hexan-3-yl)(1-methyl-3-(oxazol-2-yl)-1H-pyrazol-5-yl)methanone]	< 10	> 100	–	–
Cn1nc(-c2ccon2)cc1C(=O)N1C[C@@H]2[C@H](C1)[C@H]2Oc1cc(C(C)(C)N)cc(-c2ccc3c(c2)CC3(F)F)n1 [Example 36, ((1R,5S,6s)-6-((4-(2-aminopropan-2-yl)-6-(7,7-difluorobicyclo[4.2.0]octa-1(6),2,4-trien-3-yl)pyridin-2-yl)oxy)-3-azabicyclo[3.1.0]hexan-3-yl)(3-(isoxazol-3-yl)-1-methyl-1H-pyrazol-5-yl)methanone]	< 10	> 100	–	–
Cc1nc(-c2ncco2)sc1C(=O)N1C[C@@H]2[C@H](C1)[C@H]2Oc1cc(C(C)(C)N)cc(-n2cc(C3CC3)cn2)n1 [Example 37, ((1R,5S,6s)-6-((4-(2-aminopropan-2-yl)-6-(4-cyclopropyl-1H-pyrazol-1-yl)pyridin-2-yl)oxy)-3-azabicyclo[3.1.0]hexan-3-yl)(4-methyl-2-(oxazol-2-yl)thiazol-5-yl)methanone]	< 10	> 100	–	–
Cn1nc(-c2cscn2)cc1C(=O)N1C[C@@H]2[C@H](C1)[C@H]2Oc1cc(C(C)(C)N)cc(-n2cc(C3CC3)cn2)n1 [Example 38, ((1R,5S,6s)-6-((4-(2-aminopropan-2-yl)-6-(4-cyclopropyl-1H-pyrazol-1-yl)pyridin-2-yl)oxy)-3-azabicyclo[3.1.0]hexan-3-yl)(1-methyl-3-(thiazol-4-yl)-1H-pyrazol-5-yl)methanone]	< 10	> 100	–	–
Cn1nc(-c2cscn2)cc1C(=O)N1C[C@@H]2[C@H](C1)[C@H]2Oc1cc(C(C)(C)N)cc(N2CCC(C)(C)CC2)n1 [Example 39, ((1R,5S,6s)-6-((4-(2-aminopropan-2-yl)-6-(4,4-dimethylpiperidin-1-yl)pyridin-2-yl)oxy)-3-azabicyclo[3.1.0]hexan-3-yl)(1-methyl-3-(thiazol-4-yl)-1H-pyrazol-5-yl)methanone]	< 10	> 100	–	–
Cn1nc(-c2ncco2)cc1C(=O)N1C[C@@H]2[C@H](C1)[C@H]2Oc1cc(C(C)(C)N)cc(N2CCC(C(F)(F)F)CC2)n1 [Example 40, ((1R,5S,6s)-6-((4-(2-aminopropan-2-yl)-6-(4-(trifluoromethyl)piperidin-1-yl)pyridin-2-yl)oxy)-3-azabicyclo[3.1.0]hexan-3-yl)(1-methyl-3-(oxazol-2-yl)-1H-pyrazol-5-yl)methanone]	< 10	> 100	–	–
Cn1nc(-c2cscn2)cc1C(=O)N1C[C@@H]2[C@H](C1)[C@H]2Oc1cc(C(C)(C)N)cc(N2CCC(C(F)(F)F)CC2)n1 [Example 41, ((1R,5S,6s)-6-((4-(2-aminopropan-2-yl)-6-(4-(trifluoromethyl)piperidin-1-yl)pyridin-2-yl)oxy)-3-azabicyclo[3.1.0]hexan-3-yl)(1-methyl-3-(thiazol-4-yl)-1H-pyrazol-5-yl)methanone]	< 10	> 100	–	–
Cn1nc(-c2cscn2)cc1C(=O)N1C[C@@H]2[C@H](C1)[C@H]2Oc1cc(C(C)(C)N)cc(OCC23CC(C2)C3)n1 [Example 42, ((1R,5S,6s)-6-((4-(2-aminopropan-2-yl)-6-(bicyclo[1.1.1]pentan-1-ylmethoxy)pyridin-2-yl)oxy)-3-azabicyclo[3.1.0]hexan-3-yl)(1-methyl-3-(thiazol-4-yl)-1H-pyrazol-5-yl)methanone]	< 10	> 100	–	–
Cn1nc(-c2cscn2)cc1C(=O)N1C[C@@H]2[C@H](C1)[C@H]2Oc1cc(C(N)=O)cc(-c2ccc(F)cc2)n1 [Example 47, 2-(4-fluorophenyl)-6-(((1R,5S,6s)-3-(1-methyl-3-(thiazol-4-yl)-1H-pyrazole-5-carbonyl)-3-azabicyclo[3.1.0]hexan-6-yl)oxy)isonicotinamide]	–	–	< 10	> 100
Cn1nc(-c2cscn2)cc1C(=O)N1C[C@@H]2[C@H](C1)[C@H]2Oc1cc(C(C)(C)C(N)=O)cc(-c2ccc(F)cc2)n1 [Example 48, 2-(2-(4-fluorophenyl)-6-(((1R,5S,6s)-3-(1-methyl-3-(thiazol-4-yl)-1H-pyrazole-5-carbonyl)-3-azabicyclo[3.1.0]hexan-6-yl)oxy)pyridin-4-yl)-2-methylpropanamide]	–	–	< 10	> 100
Cn1nc(-c2cscn2)cc1C(=O)N1C[C@@H]2[C@H](C1)[C@H]2Oc1cc(C2(N)CCC2)cc(-c2ccc(F)cc2)n1 [Example 52, ((1R,5S,6s)-6-((4-(1-aminocyclobutyl)-6-(4-fluorophenyl)pyridin-2-yl)oxy)-3-azabicyclo[3.1.0]hexan-3-yl)(1-methyl-3-(thiazol-4-yl)-1H-pyrazol-5-yl)methanone]	< 10	> 100	–	–
Cn1nc(-c2cscn2)cc1C(=O)N1C[C@@H]2[C@H](C1)[C@H]2Oc1cc(C2(N)CCCC2)cc(-c2ccc(F)cc2)n1 [Example 53, ((1R,5S,6s)-6-((4-(1-aminocyclopentyl)-6-(4-fluorophenyl)pyridin-2-yl)oxy)-3-azabicyclo[3.1.0]hexan-3-yl)(1-methyl-3-(thiazol-4-yl)-1H-pyrazol-5-yl)methanone]	–	–	< 10	> 100
Cn1nc(-c2cscn2)cc1C(=O)N1C[C@@H]2[C@H](C1)[C@H]2Oc1cc(C(C)(C)CN)cc(-c2ccc(F)cc2)n1 [Example 54, ((1R,5S,6s)-6-((4-(1-amino-2-methylpropan-2-yl)-6-(4-fluorophenyl)pyridin-2-yl)oxy)-3-azabicyclo[3.1.0]hexan-3-yl)(1-methyl-3-(thiazol-4-yl)-1H-pyrazol-5-yl)methanone]	–	–	< 10	10 to 100
Cn1nc(-c2cscn2)cc1C(=O)N1C[C@@H]2[C@H](C1)[C@H]2Oc1cc(-c2ccc(F)cc2)cc(C(C)(C)N)n1 [Example 59, ((1R,5S,6s)-6-((6-(2-aminopropan-2-yl)-4-(4-fluorophenyl)pyridin-2-yl)oxy)-3-azabicyclo[3.1.0]hexan-3-yl)(1-methyl-3-(thiazol-4-yl)-1H-pyrazol-5-yl)methanone]	–	–	< 10	> 100
Cn1nc(-c2ncco2)cc1C(=O)N1C[C@@H]2[C@H](C1)[C@H]2Oc1cc(-c2ccc(F)cc2)cc(C(C)(C)N)n1 [Example 60, ((1R,5S,6s)-6-((6-(2-aminopropan-2-yl)-4-(4-fluorophenyl)pyridin-2-yl)oxy)-3-azabicyclo[3.1.0]hexan-3-yl)(1-methyl-3-(oxazol-2-yl)-1H-pyrazol-5-yl)methanone]	< 10	> 100	–	–
Cn1nc(-c2cscn2)cc1C(=O)N1C[C@@H]2[C@H](C1)[C@H]2Oc1cc(C(C)(C)N)cc(C2(C)CCCC2)n1 [Example 63, ((1R,5S,6s)-6-((4-(2-aminopropan-2-yl)-6-(1-methylcyclopentyl)pyridin-2-yl)oxy)-3-azabicyclo[3.1.0]hexan-3-yl)(1-methyl-3-(thiazol-4-yl)-1H-pyrazol-5-yl)methanone]	–	–	< 10	> 100
Cn1nc(-c2ccon2)cc1C(=O)N1C[C@@H]2[C@H](C1)[C@H]2Oc1cc(C(C)(C)N)cc(N2CCC(C(F)(F)F)CC2)n1 [Example 64, ((1R,5S,6s)-6-((4-(2-aminopropan-2-yl)-6-(4-(trifluoromethyl)piperidin-1-yl)pyridin-2-yl)oxy)-3-azabicyclo[3.1.0]hexan-3-yl)(3-(isoxazol-3-yl)-1-methyl-1H-pyrazol-5-yl)methanone]	–	–	< 10	> 100
Cn1nc(-c2ncco2)cc1C(=O)N1C[C@@H]2[C@H](C1)[C@H]2Oc1cc(C(C)(C)N)cc(N2CCC(C)(C)CC2)n1 [Example 65, ((1R,5S,6s)-6-((4-(2-aminopropan-2-yl)-6-(4,4-dimethylpiperidin-1-yl)pyridin-2-yl)oxy)-3-azabicyclo[3.1.0]hexan-3-yl)(1-methyl-3-(oxazol-2-yl)-1H-pyrazol-5-yl)methanone]	–	–	< 10	> 100
Cn1nc(-n2cccn2)cc1C(=O)N1C[C@@H]2[C@H](C1)[C@H]2Oc1cc(C(C)(C)N)cc(-c2ccc(F)cc2)n1 [Example 67, ((1R,5S,6s)-6-((4-(2-aminopropan-2-yl)-6-(4-fluorophenyl)pyridin-2-yl)oxy)-3-azabicyclo[3.1.0]hexan-3-yl)(1′-methyl-1′H-[1,3′-bipyrazol]-5′-yl)methanone]	–	–	< 10	> 100
Cn1nc(-n2nccn2)cc1C(=O)N1C[C@@H]2[C@H](C1)[C@H]2Oc1cc(C(C)(C)N)cc(-c2ccc(F)cc2)n1 [Example 68, ((1R,5S,6s)-6-((4-(2-aminopropan-2-yl)-6-(4-fluorophenyl)pyridin-2-yl)oxy)-3-azabicyclo[3.1.0]hexan-3-yl)(1-methyl-3-(2H-1,2,3-triazol-2-yl)-1H-pyrazol-5-yl)methanone]	< 10	10 to 100	–	–
